Experimental data as given in ChEMBL document CHEMBL3734745, “Synthesis of six mexiletine derivatives with isoindolines attached as potential antioxidants and their evaluation as cardioprotective agents” (Medchemcomm, 2015).
The source made the active and inactive calls. The rule behind the calls is not given here.

What was measured:
Aorta = experiment: Antioxidant activity in NADPH stimulated Sprague-Dawley rat aorta assessed as reduction in photon emission at 10 uM incubated for 45 mins by lucigenin-enhanced chemiluminescence assay; assay type: functional, tissue-based
RAW264.7 [1] = experiment: Cytotoxicity against mouse RAW264.7 cells assessed as cell viability at 100 uM by MTS assay; assay type: cell-based; conditions: raw264.7, 100 µM
Erythrocyte = experiment: Antioxidant activity in C57Bl/6 mouse erythrocyte assessed as increase in AAPH-induced hemolysis time incubated for 30 mins by spectrophotometry; assay type: functional, cell-based
Right cardiac atrium [2] = experiment: Reduction in resting atrial rate in Guinea pig right atria at 100 uM by electrogram (reference value: 175 to 200 bpm); assay type: functional, Cavia porcellus
Cavia porcellus = organism: Cavia porcellus; experiment: Effect on papillary muscle refractory period in Guinea pig at 100 uM by electrogram; assay type: functional, tissue-based
Right cardiac atrium [3] = experiment: Increase in absolute refractory period in Guinea pig right atria at 100 uM incubated for 30 mins by electrogram; assay type: functional; conditions: Cavia porcellus
RAW264.7 [4] = experiment: Antioxidant activity in phorbol 12,13-dibutyrate stimulated mouse RAW264.7 cells assessed as inhibition of ROS generation by measuring the reduction in photon emission at 100 uM incubated for 60 mins by L-012-enhanced chemiluminescence assay relative to control; assay type: functional
[5] = Toxicity in rat H9c2(2-1) cells assessed as cell death at 10 uM incubated for 12 hrs under hypoxic simulated ischemia by propidium iodide exclusion assay; assay type: cell-based
[6] = (§1) Cardio-protective anti-ischemic activity in rat H9c2(2-1) cells assessed as reduction in cell death at 5 uM incubated for 12 hrs under hypoxic simulated ischemia by propidium iodide exclusion assay; assay type: functional; parameters: scale not given: the % may be the effect or the level left
Rattus norvegicus = organism: Rattus norvegicus; experiment: as §1; assay type: functional

For `CC1(C)NC(C)(C)c2ccccc21`, the Activity (Aorta) was “inactive”, the Activity (RAW264.7 [1]) was “Non-toxic” and the Activity (Erythrocyte) was “inactive”.

In the case of `CC(N)COc1c(Cl)cccc1Cl` (stereo not drawn), the Activity (Right cardiac atrium [2]) is reported as 15 bpm, the Activity (Cavia porcellus) is reported as “inactive” and the Activity (Right cardiac atrium [3]) is reported as “Active”.

With `Cc1cccc(C)c1OCC(C)NCc1ccc2c(c1)C(C)(C)N([O])C2(C)C` (stereo not drawn) the Activity (Right cardiac atrium [2]; Cavia porcellus) was “Active”, the Activity (Cavia porcellus) was “inactive” and the Activity (Right cardiac atrium [3]) was “Active”. The Activity (RAW264.7 [4]) was “inactive”.

For `CC(COc1c(Cl)cccc1Cl)NCc1ccc2c(c1)C(C)(C)N(O)C2(C)C` (stereo not drawn), the Activity (RAW264.7 [1]) was “Non-toxic”.

With `CC(COc1c(Cl)cccc1Cl)NCc1ccc2c(c1)C(C)(C)NC2(C)C` (stereo not drawn) the Activity (RAW264.7 [1]) was “Non-toxic”.

In the case of `Cc1cccc(C)c1OCC(C)NCc1ccc2c(c1)C(C)(C)NC2(C)C` (stereo not drawn), the Activity (Right cardiac atrium [2]; Cavia porcellus) is reported as “Active”, the Activity (Cavia porcellus) is reported as “inactive” and the Activity (Right cardiac atrium [3]) is reported as “Active”. For the same molecule, the Activity [5] was “Toxic”, the Activity (RAW264.7 [4]) was “inactive” and the Activity [6] was 55%.

With `Cc1cccc(C)c1OCC(C)NCc1ccc2c(c1)C(C)(C)N(O)C2(C)C` (stereo not drawn) the Activity (Right cardiac atrium [2]; Cavia porcellus) was “Active”, the Activity (Cavia porcellus) was “inactive” and the Activity (Right cardiac atrium [3]) was “Active”. The Activity [5] was “Toxic”, the Activity (RAW264.7 [4]) was “inactive” and the Activity (Rattus norvegicus) was “Active”.

For `CC1(C)c2ccccc2C(C)(C)N1[O]`, the Activity (Aorta) was “inactive”, the Activity (RAW264.7 [1]) was “Non-toxic” and the Activity (Erythrocyte) was “inactive”.

In the case of `CC1(C)c2ccccc2C(C)(C)N1O`, the Activity (Aorta) is reported as “inactive”, the Activity (RAW264.7 [1]) is reported as “Non-toxic” and the Activity (Erythrocyte) is reported as “inactive”.

For `CC(COc1c(Cl)cccc1Cl)NCc1ccc2c(c1)C(C)(C)N([O])C2(C)C` (stereo not drawn), the Activity (Right cardiac atrium [2]; Cavia porcellus) was “Active”, the Activity (Cavia porcellus) was “inactive” and the Activity (Right cardiac atrium [3]) was “inactive”. The Activity [5] was “Toxic”, the Activity (RAW264.7 [1]) was “Non-toxic” and the Activity (Rattus norvegicus) was “Active”.

In the case of `Cc1cccc(C)c1OCC(C)N` (stereo not drawn) [MEXILETINE], the Activity (Aorta) is reported as “inactive”, the Activity (Right cardiac atrium [2]) is reported as 15 bpm and the Activity (Cavia porcellus) is reported as “Active”. The Activity (Right cardiac atrium [3]) was “Active”, the Activity (RAW264.7 [4]) was “inactive” and the Activity (Erythrocyte) was “inactive”. For the same molecule, the Activity (Rattus norvegicus) was “inactive”.
